In US12522595B2, “Bicyclic ether O-glycoprotein-2-acetamido-2-deoxy-3-D-glucopyranosidase inhibitors” (BIOGEN MA INC., priority 2019, dated 2026):

These compounds were tested against T1, Recombinant full length human OGA enzyme (Homo sapiens, UniProt O60502) (assay: OGA enzyme inhibition biochemical assay). Settings: 1 nM OGA, 100 μM 4-MUGlcNAc (Km), pH 6.4, 90 minutes at room temperature, 10-point dose-response from 20 μM.
T1 construct: Recombinant full length human OGA enzyme was purchased from Origene; purchased Origene
T1 sequence (O60502 1-916): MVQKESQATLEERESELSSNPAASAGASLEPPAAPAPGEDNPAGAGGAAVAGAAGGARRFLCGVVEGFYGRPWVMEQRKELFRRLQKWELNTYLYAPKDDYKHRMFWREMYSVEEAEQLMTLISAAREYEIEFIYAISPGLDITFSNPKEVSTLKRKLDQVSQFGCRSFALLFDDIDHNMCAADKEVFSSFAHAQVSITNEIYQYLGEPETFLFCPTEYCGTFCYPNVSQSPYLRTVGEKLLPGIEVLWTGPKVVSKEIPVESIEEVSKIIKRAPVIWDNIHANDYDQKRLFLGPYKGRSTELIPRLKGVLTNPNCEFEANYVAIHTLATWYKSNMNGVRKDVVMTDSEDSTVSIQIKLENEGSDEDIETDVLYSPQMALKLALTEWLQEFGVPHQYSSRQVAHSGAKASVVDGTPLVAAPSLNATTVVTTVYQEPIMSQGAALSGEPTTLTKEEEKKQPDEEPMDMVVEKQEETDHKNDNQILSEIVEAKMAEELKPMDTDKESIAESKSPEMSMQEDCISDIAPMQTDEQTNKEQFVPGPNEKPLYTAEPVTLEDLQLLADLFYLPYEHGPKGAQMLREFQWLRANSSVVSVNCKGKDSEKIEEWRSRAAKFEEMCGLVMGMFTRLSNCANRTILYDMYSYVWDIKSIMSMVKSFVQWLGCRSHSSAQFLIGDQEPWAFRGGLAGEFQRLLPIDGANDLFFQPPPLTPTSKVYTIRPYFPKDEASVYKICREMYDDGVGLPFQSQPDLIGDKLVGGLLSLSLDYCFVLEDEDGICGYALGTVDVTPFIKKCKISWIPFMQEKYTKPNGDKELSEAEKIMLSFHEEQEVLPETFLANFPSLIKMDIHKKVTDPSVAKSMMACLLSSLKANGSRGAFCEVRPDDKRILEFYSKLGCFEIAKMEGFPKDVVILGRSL
Procedure, shortened: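 1 nM OGA with 100 μM 4-MUGlcNAc (Km) in McIlvaine buffer pH 6.4, 0.01% BSA, 90 min at room temperature; quenched with 3M glycine pH 10, fluorescence Ex 355/Em 460 nm. 10-point, 4-fold dilutions from 20 μM; 4-parameter variable-slope fit.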

IC50 | Compound
< 1 nM | CC(=O)Nc1nc(F)c(CN2C[C@H](Oc3ccn4ncnc4c3)C[C@@H]2C)s1 [Example 107, N-(5-(((2S,4R)-4-([1,2,4]triazolo[1,5-a]pyridin-7-yloxy)-2-methylpyrrolidin-1-yl)methyl)-4-fluorothiazol-2-yl)acetamide]
< 1 nM | CC(=O)Nc1nc(F)c(CN2C[C@H](Oc3ccc4nccn4n3)C[C@@H]2C)s1 [Example 108, N-(4-fluoro-5-(((2S,4R)-4-(imidazo[1,2-b]pyridazin-6-yloxy)-2-methylpyrrolidin-1-yl)methyl)thiazol-2-yl)acetamide]
< 1 nM | CC(=O)Nc1nc(F)c(CN2C[C@H](Oc3cnc4c(ccn4C)n3)C[C@@H]2C)s1 [Example 109, N-(4-fluoro-5-(((2S,4R)-2-methyl-4-((5-methyl-5H-pyrrolo[2,3-b]pyrazin-2-yl)oxy)pyrrolidin-1-yl)methyl)thiazol-2-yl)acetamide]
< 1 nM | CC(=O)Nc1nc(F)c(CN2C[C@H](Oc3ncc4ccn(C)c4n3)C[C@@H]2C)s1 [Example 110, N-(4-fluoro-5-(((2S,4R)-2-methyl-4-((7-methyl-7H-pyrrolo[2,3-d]pyrimidin-2-yl)oxy)pyrrolidin-1-yl)methyl)thiazol-2-yl)acetamide]
< 1 nM | CC(=O)Nc1nc(F)c(CN2C[C@H](Oc3nn4ccnc4s3)C[C@@H]2C)s1 [Example 111, N-(4-fluoro-5-(((2S,4R)-4-(imidazo[2,1-b][1,3,4]thiadiazol-2-yloxy)-2-methylpyrrolidin-1-yl)methyl)thiazol-2-yl)acetamide]
< 1 nM | CC(=O)Nc1nc(F)c(CN2C[C@H](Oc3ccn4nc(C)cc4n3)C[C@@H]2C)s1 [Example 112, N-(4-fluoro-5-(((2S,4R)-2-methyl-4-((2-methylpyrazolo[1,5-a]pyrimidin-5-yl)oxy)pyrrolidin-1-yl)methyl)thiazol-2-yl)acetamide]
< 1 nM | CC(=O)Nc1nc(F)c(CN2C[C@H](Oc3ncc4ncn(C)c4n3)C[C@@H]2C)s1 [Example 113, N-(4-fluoro-5-(((2S,4R)-2-methyl-4-((9-methyl-9H-purin-2-yl)oxy)pyrrolidin-1-yl)methyl)thiazol-2-yl)acetamide]
< 1 nM | CC(=O)Nc1nc(F)c(CN2C[C@H](Oc3nccc4ncccc34)C[C@@H]2C)s1 [Example 114, N-(5-(((2S,4R)-4-((1,6-naphthyridin-5-yl)oxy)-2-methylpyrrolidin-1-yl)methyl)-4-fluorothiazol-2-yl)acetamide]
3.8 nM | CC(=O)Nc1nc(F)c(CN2C[C@H](Oc3nccc4nccnc34)C[C@@H]2C)s1 [Example 115, N-(4-fluoro-5-(((2S,4R)-2-methyl-4-(pyrido[3,4-b]pyrazin-5-yloxy)pyrrolidin-1-yl)methyl)thiazol-2-yl)acetamide]
2.6 nM | CC(=O)Nc1nc(F)c(CN2C[C@H](Oc3ncnc4cccnc34)C[C@@H]2C)s1 [Example 116, N-(4-fluoro-5-(((2S,4R)-2-methyl-4-(pyrido[3,2-d]pyrimidin-4-yloxy)pyrrolidin-1-yl)methyl)thiazol-2-yl)acetamide]
< 1 nM | CC(=O)Nc1nc(F)c(CN2C[C@H](Oc3ccc4nccnc4n3)C[C@@H]2C)s1 [Example 117, N-(4-fluoro-5-(((2S,4R)-2-methyl-4-(pyrido[2,3-b]pyrazin-6-yloxy)pyrrolidin-1-yl)methyl)thiazol-2-yl)acetamide]
< 1 nM | CC(=O)Nc1nc(F)c(CN2C[C@H](Oc3ncnc4cnccc34)C[C@@H]2C)s1 [Example 118, N-(4-fluoro-5-(((2S,4R)-2-methyl-4-(pyrido[3,4-d]pyrimidin-4-yloxy)pyrrolidin-1-yl)methyl)thiazol-2-yl)acetamide]
1.1 nM | CC(=O)Nc1nc(F)c(CN2C[C@H](Oc3ncnc4ncccc34)C[C@@H]2C)s1 [Example 119, N-(4-fluoro-5-(((2S,4R)-2-methyl-4-(pyrido[2,3-d]pyrimidin-4-yloxy)pyrrolidin-1-yl)methyl)thiazol-2-yl)acetamide]
< 1 nM | CC(=O)Nc1nc(F)c(CN2C[C@H](Oc3ccc4cnccc4n3)C[C@@H]2C)s1 [Example 120, N-(5-(((2S,4R)-4-((1,6-naphthyridin-2-yl)oxy)-2-methylpyrrolidin-1-yl)methyl)-4-fluorothiazol-2-yl)acetamide]
< 1 nM | COc1cnc2c(O[C@@H]3C[C@H](C)N(Cc4sc(NC(C)=O)nc4F)C3)cnn2c1 [Example 121, N-(4-fluoro-5-(((2S,4R)-4-((6-methoxypyrazolo[1,5-a]pyrimidin-3-yl)oxy)-2-methylpyrrolidin-1-yl)methyl)thiazol-2-yl)acetamide]
< 1 nM | CC(=O)Nc1nc(F)c(CN2C[C@H](Oc3ncnc4c(F)cccc34)C[C@@H]2C)s1 [Example 122, N-(4-fluoro-5-(((2S,4R)-4-((8-fluoroquinazolin-4-yl)oxy)-2-methylpyrrolidin-1-yl)methyl)thiazol-2-yl)acetamide]
4.1 nM | CC(=O)Nc1nc(F)c(CN2C[C@H](Oc3ncnc4ccc(F)cc34)C[C@@H]2C)s1 [Example 123, N-(4-fluoro-5-(((2S,4R)-4-((6-fluoroquinazolin-4-yl)oxy)-2-methylpyrrolidin-1-yl)methyl)thiazol-2-yl)acetamide]
< 1 nM | CC(=O)Nc1nc(F)c(CN2C[C@H](Oc3ncnc4cccc(F)c34)C[C@@H]2C)s1 [Example 124, N-(4-fluoro-5-(((2S,4R)-4-((5-fluoroquinazolin-4-yl)oxy)-2-methylpyrrolidin-1-yl)methyl)thiazol-2-yl)acetamide]
1.8 nM | COc1cc2c(O[C@@H]3C[C@H](C)N(Cc4sc(NC(C)=O)nc4F)C3)ncnc2cc1F [Example 125, N-(4-fluoro-5-(((2S,4R)-4-((7-fluoro-6-methoxyquinazolin-4-yl)oxy)-2-methylpyrrolidin-1-yl)methyl)thiazol-2-yl)acetamide]
3.1 nM | CC(=O)Nc1nc(F)c(CN2C[C@H](Oc3noc4cc(F)ccc34)C[C@@H]2C)s1 [Example 126, N-(4-fluoro-5-(((2S,4R)-4-((6-fluorobenzo[d]isoxazol-3-yl)oxy)-2-methylpyrrolidin-1-yl)methyl)thiazol-2-yl)acetamide]
< 1 nM | CC(=O)Nc1nc(F)c(CN2C[C@H](Oc3nc4c(F)cccc4o3)C[C@@H]2C)s1 [Example 127, N-(4-fluoro-5-(((2S,4R)-4-((4-fluorobenzo[d]oxazol-2-yl)oxy)-2-methylpyrrolidin-1-yl)methyl)thiazol-2-yl)acetamide]
< 1 nM | COc1cc2c(O[C@@H]3C[C@H](C)N(Cc4sc(NC(C)=O)nc4F)C3)ccnc2cc1F [Example 128, N-(4-fluoro-5-(((2S,4R)-4-((7-fluoro-6-methoxyquinolin-4-yl)oxy)-2-methylpyrrolidin-1-yl)methyl)thiazol-2-yl)acetamide]
< 1 nM | CC(=O)Nc1nc(F)c(CN2C[C@H](Oc3ccnc4cc(F)cnc34)C[C@@H]2C)s1 [Example 129, N-(4-fluoro-5-(((2S,4R)-4-((7-fluoro-1,5-naphthyridin-4-yl)oxy)-2-methylpyrrolidin-1-yl)methyl)thiazol-2-yl)acetamide]
< 1 nM | COc1cc2cnc(O[C@@H]3C[C@H](C)N(Cc4sc(NC(C)=O)nc4F)C3)cc2cc1F [Example 130, N-(4-fluoro-5-(((2S,4R)-4-((6-fluoro-7-methoxyisoquinolin-3-yl)oxy)-2-methylpyrrolidin-1-yl)methyl)thiazol-2-yl)acetamide]
< 1 nM | COc1nc(O[C@@H]2C[C@H](C)N(Cc3sc(NC(C)=O)nc3F)C2)cc2cc(F)ccc12 [Example 131, N-(4-fluoro-5-(((2S,4R)-4-((6-fluoro-1-methoxyisoquinolin-3-yl)oxy)-2-methylpyrrolidin-1-yl)methyl)thiazol-2-yl)acetamide]
< 1 nM | COc1cc2ccnc(Cl)c2cc1O[C@@H]1C[C@H](C)N(Cc2sc(NC(C)=O)nc2F)C1 [Example 132, N-(5-(((2S,4R)-4-((1-chloro-6-methoxyisoquinolin-7-yl)oxy)-2-methylpyrrolidin-1-yl)methyl)-4-fluorothiazol-2-yl)acetamide]
< 1 nM | CC(=O)Nc1nc(F)c(CN2C[C@H](Oc3nncc4cc(F)ccc34)C[C@@H]2C)s1 [Example 133, N-(4-fluoro-5-(((2S,4R)-4-((6-fluorophthalazin-1-yl)oxy)-2-methylpyrrolidin-1-yl)methyl)thiazol-2-yl)acetamide]
